Reference: PubChem BioAssay (NCI)
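Growth conditions: 96-well plates. Treatment: test compound, 48 hours, 5 concentrations. Analysis: linear interpolation between bracketing concentrations; unreached endpoints set to highest concentration. Here, GI50 denotes the concentration required for 50% inhibition of growth. Definition used: TGI = concentration required for complete inhibition of growth.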

Legend:
Assay in all cases: NCI tumour cell line growth inhibition, 48 h
A549 NSCLC = system: A549 NSCLC
MDA-MB-435 = system: MDA-MB-435
SNB-75 CNS = system: SNB-75 CNS
U251 CNS = system: U251 CNS
NCI-H23 lung = system: NCI-H23 lung
SF-295 CNS = system: SF-295 CNS
HCT-15 colon = system: HCT-15 colon
SF-539 CNS = system: SF-539 CNS
RPMI-8226 leukemia = system: RPMI-8226 leukemia
MDA-MB-231 breast = system: MDA-MB-231 breast
OVCAR-8 ovarian = system: OVCAR-8 ovarian
RXF 393 renal = system: RXF 393 renal
OVCAR-3 ovarian = system: OVCAR-3 ovarian
SK-MEL-5 melanoma = system: SK-MEL-5 melanoma
SW-620 colon = system: SW-620 colon
UACC-62 melanoma = system: UACC-62 melanoma
NCI-H522 lung = system: NCI-H522 lung
TK-10 renal = system: TK-10 renal
HCC-2998 colon = system: HCC-2998 colon
HL-60(TB) leukemia = system: HL-60(TB) leukemia
786-0 renal = system: 786-0 renal
M14 melanoma = system: M14 melanoma
SR leukemia = system: SR leukemia
ACHN renal = system: ACHN renal
OVCAR-4 ovarian = system: OVCAR-4 ovarian
HOP-62 NSCLC = system: HOP-62 NSCLC
UO-31 renal = system: UO-31 renal
HT29 colon = system: HT29 colon
HS 578T breast = system: HS 578T breast
UACC-257 melanoma = system: UACC-257 melanoma
T-47D breast = system: T-47D breast
SK-MEL-28 melanoma = system: SK-MEL-28 melanoma
SF-268 CNS = system: SF-268 CNS
LOX IMVI melanoma = system: LOX IMVI melanoma
NCI/ADR-RES ovarian = system: NCI/ADR-RES ovarian
SK-MEL-2 melanoma = system: SK-MEL-2 melanoma
PC-3 prostate = system: PC-3 prostate
SK-OV-3 ovarian = system: SK-OV-3 ovarian
COLO 205 colon = system: COLO 205 colon
A498 renal = system: A498 renal
MCF7 breast = system: MCF7 breast
K-562 leukemia = system: K-562 leukemia
MALME-3M melanoma = system: MALME-3M melanoma
HCT-116 colon = system: HCT-116 colon
BT-549 breast = system: BT-549 breast
OVCAR-5 ovarian = system: OVCAR-5 ovarian
DU-145 prostate = system: DU-145 prostate
SNB-19 CNS = system: SNB-19 CNS
CAKI-1 renal = system: CAKI-1 renal
KM12 colon = system: KM12 colon
NCI-H460 lung = system: NCI-H460 lung
SN12C renal = system: SN12C renal
NCI-H226 lung = system: NCI-H226 lung
IGROV1 ovarian = system: IGROV1 ovarian
MOLT-4 leukemia = system: MOLT-4 leukemia
HOP-92 NSCLC = system: HOP-92 NSCLC

## COc1cc(-c2nn(-c3cccc(NC(=O)Nc4cccc(C(F)(F)F)c4)c3)cc2-c2ccncc2)ccc1Cl
A549 NSCLC
  GI50: 723 nM
  TGI: 14500 nM
MDA-MB-435
  GI50: 794 nM
  TGI: 1980 nM
SNB-75 CNS
  GI50: 1130 nM
  TGI: 4100 nM
U251 CNS
  GI50: 467 nM
  TGI: 1230 nM
NCI-H23 lung
  GI50: 769 nM
  TGI: 3020 nM
SF-295 CNS
  GI50: 229 nM
  TGI: 926 nM
HCT-15 colon
  GI50: 957 nM
  TGI: 10800 nM
SF-539 CNS
  GI50: 958 nM
  TGI: 2560 nM
RPMI-8226 leukemia
  GI50: 241 nM
  TGI: 1830 nM
MDA-MB-231 breast
  GI50: 813 nM
  TGI: 2230 nM
OVCAR-8 ovarian
  GI50: 739 nM
  TGI: 2700 nM
RXF 393 renal
  GI50: 798 nM
  TGI: 1950 nM
OVCAR-3 ovarian
  GI50: 343 nM
  TGI: 1590 nM
SK-MEL-5 melanoma
  GI50: 622 nM
  TGI: 1270 nM
SW-620 colon
  GI50: 767 nM
  TGI: 9430 nM
UACC-62 melanoma
  GI50: 627 nM
  TGI: 1480 nM
NCI-H522 lung
  GI50: 451 nM
  TGI: 1870 nM
TK-10 renal
  GI50: 1060 nM
  TGI: 9260 nM
HCC-2998 colon
  GI50: 1380 nM
  TGI: 4710 nM
HL-60(TB) leukemia
  GI50: 756 nM
  TGI: 10100 nM
786-0 renal
  GI50: 1120 nM
  TGI: 3170 nM
M14 melanoma
  GI50: 759 nM
  TGI: 2160 nM
SR leukemia
  GI50: 858 nM
  TGI: 2620 nM
ACHN renal
  GI50: 371 nM
  TGI: 13600 nM
OVCAR-4 ovarian
  GI50: 996 nM
  TGI: 13800 nM
HOP-62 NSCLC
  GI50: 923 nM
  TGI: 2880 nM
UO-31 renal
  GI50: 747 nM
  TGI: 3040 nM
HT29 colon
  GI50: 775 nM
  TGI: 2090 nM
HS 578T breast
  GI50: 1360 nM
  TGI: 16600 nM
UACC-257 melanoma
  GI50: 746 nM
  TGI: 2090 nM
T-47D breast
  GI50: 638 nM
  TGI: 11400 nM
SK-MEL-28 melanoma
  GI50: 1060 nM
  TGI: 3910 nM
SF-268 CNS
  GI50: 1280 nM
  TGI: 5010 nM
LOX IMVI melanoma
  GI50: 789 nM
  TGI: 1650 nM
NCI/ADR-RES ovarian
  GI50: 696 nM
  TGI: 3580 nM
SK-MEL-2 melanoma
  GI50: 935 nM
  TGI: 1940 nM
PC-3 prostate
  GI50: 244 nM
  TGI: 1550 nM
SK-OV-3 ovarian
  GI50: 1700 nM
  TGI: 15400 nM
COLO 205 colon
  GI50: 588 nM
  TGI: 1430 nM
A498 renal
  GI50: 609 nM
  TGI: 3030 nM
MCF7 breast
  GI50: 609 nM
  TGI: 4700 nM
K-562 leukemia
  GI50: 386 nM
  TGI: 12100 nM
MALME-3M melanoma
  GI50: 845 nM
  TGI: 2180 nM
HCT-116 colon
  GI50: 608 nM
  TGI: 6090 nM
BT-549 breast
  GI50: 1230 nM
  TGI: 4030 nM
OVCAR-5 ovarian
  GI50: 1520 nM
  TGI: 8410 nM
DU-145 prostate
  GI50: 1360 nM
  TGI: 22800 nM
SNB-19 CNS
  GI50: 999 nM
  TGI: 6260 nM
CAKI-1 renal
  GI50: 952 nM
  TGI: 3100 nM
KM12 colon
  GI50: 422 nM
  TGI: 2020 nM
NCI-H460 lung
  GI50: 478 nM
  TGI: 2280 nM
SN12C renal
  GI50: 817 nM
  TGI: 10500 nM
NCI-H226 lung
  GI50: 1210 nM
  TGI: 14800 nM
IGROV1 ovarian
  GI50: 920 nM
  TGI: 3240 nM
MOLT-4 leukemia
  GI50: 936 nM
  TGI: 3480 nM
HOP-92 NSCLC
  GI50: 251 nM
  TGI: 921 nM
